# Measured values taken from paper PMC6073568, “Efficient Lead Finding, Activity Enhancement and Preliminary Selectivity Control of Nuclear Receptor Ligands Bearing a Phenanthridinone Skeleton” (International Journal of Molecular Sciences, 2018).
# What was measured:
# [1] = biological target: T1, LXRα (Homo sapiens, UniProt Q13133); settings: read-out: LXRα antagonistic activity (IC50); cited from earlier work
# T1 construct: CMX-GAL4N-hLXRα-LBD; expressed in transfected cells; host or cells: HEK293
# T1 sequence (Q13133 209-447 limits assumed): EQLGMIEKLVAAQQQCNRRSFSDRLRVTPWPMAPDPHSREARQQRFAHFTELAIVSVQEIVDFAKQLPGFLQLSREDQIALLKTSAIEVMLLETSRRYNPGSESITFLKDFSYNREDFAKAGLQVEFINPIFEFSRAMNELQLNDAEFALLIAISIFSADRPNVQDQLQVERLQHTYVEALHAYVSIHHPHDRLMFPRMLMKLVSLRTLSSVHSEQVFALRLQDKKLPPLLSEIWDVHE
# [2] = biological target: T2, LXRβ (Homo sapiens, UniProt P55055); settings: read-out: LXRβ antagonistic activity (IC50); cited from earlier work
# T2 construct: CMX-GAL4N-hLXRβ-LBD; expressed in transfected cells; host or cells: HEK293
# T2 sequence (P55055 222-460 limits assumed): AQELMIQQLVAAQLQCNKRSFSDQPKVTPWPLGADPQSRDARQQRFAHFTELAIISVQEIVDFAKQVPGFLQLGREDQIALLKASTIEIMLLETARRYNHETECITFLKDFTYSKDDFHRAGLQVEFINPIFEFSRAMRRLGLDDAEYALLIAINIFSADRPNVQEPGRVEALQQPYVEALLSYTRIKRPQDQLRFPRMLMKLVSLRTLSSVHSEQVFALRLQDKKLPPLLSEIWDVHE
# [3] = biological target: T3, PR (Homo sapiens, UniProt P06401); assay: T-47D alkaline phosphatase assay (PR antagonism); type: cell-based
# T3 sequence (P06401 1-933): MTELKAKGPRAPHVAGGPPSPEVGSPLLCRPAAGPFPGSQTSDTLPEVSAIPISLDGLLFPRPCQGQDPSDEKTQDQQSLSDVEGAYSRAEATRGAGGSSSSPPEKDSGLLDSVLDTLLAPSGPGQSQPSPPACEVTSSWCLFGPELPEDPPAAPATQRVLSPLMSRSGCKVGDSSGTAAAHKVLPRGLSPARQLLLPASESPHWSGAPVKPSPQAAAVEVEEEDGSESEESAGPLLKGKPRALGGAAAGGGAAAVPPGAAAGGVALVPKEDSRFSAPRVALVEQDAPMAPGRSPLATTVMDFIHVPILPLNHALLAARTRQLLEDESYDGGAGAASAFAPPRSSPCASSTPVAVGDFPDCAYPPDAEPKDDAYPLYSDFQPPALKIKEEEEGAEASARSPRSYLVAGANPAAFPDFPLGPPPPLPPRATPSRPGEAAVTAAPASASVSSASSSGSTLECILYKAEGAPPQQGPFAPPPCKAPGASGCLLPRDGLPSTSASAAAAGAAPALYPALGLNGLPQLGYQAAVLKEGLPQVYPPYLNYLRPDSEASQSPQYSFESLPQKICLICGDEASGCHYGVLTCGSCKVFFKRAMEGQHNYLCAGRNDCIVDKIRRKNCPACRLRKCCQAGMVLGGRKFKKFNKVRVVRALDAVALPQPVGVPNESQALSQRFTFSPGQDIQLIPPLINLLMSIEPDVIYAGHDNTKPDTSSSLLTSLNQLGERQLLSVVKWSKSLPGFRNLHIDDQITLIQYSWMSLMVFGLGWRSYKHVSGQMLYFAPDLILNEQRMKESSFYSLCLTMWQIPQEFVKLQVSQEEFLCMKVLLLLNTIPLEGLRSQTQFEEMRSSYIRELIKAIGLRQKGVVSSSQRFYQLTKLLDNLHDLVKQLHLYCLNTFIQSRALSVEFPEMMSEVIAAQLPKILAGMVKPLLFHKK
# [4] = biological target: T4, RORβ (Homo sapiens, UniProt Q92753); assay: RORβ inverse agonist reporter gene assay in HEK293; type: cell-based; settings: new compound 43, read-out: RORβ inverse agonistic activity (IC50)
# T4 construct: expressed in transfected cells; host or cells: HEK293
# T4 sequence (Q92753 1-459 isoform Q92753-1): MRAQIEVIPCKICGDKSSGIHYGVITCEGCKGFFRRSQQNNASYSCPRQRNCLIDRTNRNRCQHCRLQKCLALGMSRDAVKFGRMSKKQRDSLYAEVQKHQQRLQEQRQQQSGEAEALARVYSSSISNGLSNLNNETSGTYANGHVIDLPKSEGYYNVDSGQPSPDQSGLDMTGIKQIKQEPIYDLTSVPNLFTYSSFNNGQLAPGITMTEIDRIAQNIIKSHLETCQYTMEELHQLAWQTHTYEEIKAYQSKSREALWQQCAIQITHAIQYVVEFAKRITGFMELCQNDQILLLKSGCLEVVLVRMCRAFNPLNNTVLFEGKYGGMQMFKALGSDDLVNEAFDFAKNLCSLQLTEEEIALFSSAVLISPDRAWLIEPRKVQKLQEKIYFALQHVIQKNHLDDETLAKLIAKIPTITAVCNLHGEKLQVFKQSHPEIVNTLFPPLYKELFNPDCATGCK
# [5] = biological target: T5, RORα (Homo sapiens, UniProt P35398); assay: RORα inverse agonist reporter gene assay in HEK293; type: cell-based; settings: new compound 43, read-out: RORα inverse agonistic activity (IC50)
# T5 construct: expressed in transfected cells; host or cells: HEK293
# T5 sequence (P35398 1-523): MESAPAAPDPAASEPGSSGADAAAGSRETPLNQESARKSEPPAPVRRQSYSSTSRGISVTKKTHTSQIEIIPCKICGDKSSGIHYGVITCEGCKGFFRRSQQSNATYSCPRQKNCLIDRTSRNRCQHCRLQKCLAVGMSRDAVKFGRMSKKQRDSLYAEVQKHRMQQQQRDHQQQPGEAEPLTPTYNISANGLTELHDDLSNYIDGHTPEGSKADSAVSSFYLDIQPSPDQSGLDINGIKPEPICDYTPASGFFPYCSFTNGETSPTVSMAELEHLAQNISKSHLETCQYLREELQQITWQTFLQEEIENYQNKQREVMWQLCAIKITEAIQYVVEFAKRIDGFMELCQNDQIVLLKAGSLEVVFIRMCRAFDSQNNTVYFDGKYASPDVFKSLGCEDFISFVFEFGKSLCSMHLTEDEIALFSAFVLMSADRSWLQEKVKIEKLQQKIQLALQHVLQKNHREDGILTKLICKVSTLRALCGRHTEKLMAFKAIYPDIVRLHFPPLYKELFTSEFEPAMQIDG
smiles,measurement,setting,value
O=c1[nH]c2ccc(C(O)(C(F)(F)F)C(F)(F)F)cc2c2ccccc12 [Compound 1],IC50,[1],5 µM
same,IC50,[2],5.1 µM
Cn1c(=O)c2ccccc2c2cc(C(O)(C(F)(F)F)C(F)(F)F)ccc21 [Compound 13],IC50,[2],> 20 µM
CCCCn1c(=O)c2ccc(OC)cc2c2cc(C(O)(C(F)(F)F)C(F)(F)F)ccc21 [Compound 23],weaker PR activity than 12,[3],5 fold
"O=c1[nH]c2c(Cl)cc(C(O)(C(F)(F)F)C(F)(F)F)cc2c2ccccc12 [Compound 43, 4-Chloro-2-(1,1,1,3,3,3-hexafluoro-2-hydroxypropan-2-yl)phenanthridin-6(5H)-one]",IC50,[4],> 20 µM
same,IC50,[5],> 20 µM
same,IC50,"[3]; alkaline phosphatase, T47D cells, progesterone 1 nM, new compound 43, read-out: PR antagonistic activity (IC50)",0.35 µM
